Common to all, as to assay type: in vivo
Series [1] has as its system Amaranthus retroflexus (AMARE). As to the kind of experiment: C. Herbicidal pre-emergence efficacy, AMARE. The note with it: scored after about 3 weeks. The method, boiled down:
(§1)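 Pre-emergence test: formulated compounds sprayed as aqueous suspension or emulsion with 0.5% additive at 600 l/ha onto soil covering sown seeds, at rates corresponding to 320 g/ha or less. After about 3 weeks in greenhouse, efficacy scored visually as percent versus untreated controls (100% = plants dead).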

Series [2] concerns Digitaria sanguinalis (DIGSA). The experiment in a line: C. Herbicidal pre-emergence efficacy, DIGSA. As to conditions: 320 g/ha, scored after about 3 weeks. An excerpt: (§2) Seeds of monocotyledonous and dicotyledonous weed plants and crop plants were placed in plastic or organic planting pots and covered with soil. The compounds of the invention, formulated in the form of wettable powders (WP) or as emulsion concentrates (EC), were then applied to the surface of the covering soil as aqueous suspension or emulsion with addition of 0.5% additive at a water application rate equivalent to 600 l/ha (converted). After the treatment, the pots were placed in a greenhouse and kept under good growth conditions for the test plants. After about 3 weeks, the efficacy of the preparations was scored visually in comparison with untreated controls as percentages. For example, • 100% efficacy=plants have died, • 0% efficacy=like untreated control plants.
(§3) Tables C1a to C14b below show the effects of selected compounds of the general formula (I) according to table 1 on various harmful plants at an application rate corresponding to 320 g/ha or less, which were obtained by the experimental procedure mentioned above.

Series [3] deals with Matricaria inodora (MATIN). As to the kind of experiment: C. Herbicidal pre-emergence efficacy, MATIN. As to conditions: 320 g/ha, scored after about 3 weeks.
From the text: as §2, §3

Series [4] concerns Setaria viridis (SETVI). The experiment in a line: C. Herbicidal pre-emergence efficacy, SETVI. As to conditions: 320 g/ha, scored after about 3 weeks. Summed up: as §1
Series [5] deals with Viola tricolor (VIOTR). As to the kind of experiment: C. Herbicidal pre-emergence efficacy, VIOTR. The note with it: application rate 320 g/ha. The method, boiled down:
as §1

Series [6] deals with Kochia scoparia (KCHSC). As to the kind of experiment: C. Herbicidal pre-emergence efficacy, KCHSC. The note with it: application rate 320 g/ha. The method, boiled down: as §1
For series [7], the system named is Zea mays (ZEAMX). As to the kind of experiment: D. Pre-emergence effect on useful plants, ZEAMX. As to conditions: useful plant, application rate 80 g/ha. The method, boiled down:
(§4)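 Seeds sown in pots and covered with soil; WP or EC formulations sprayed on the soil surface as aqueous suspension/emulsion with 0.5% additive at 600 l/ha water. Plants grown in greenhouse; crop damage scored visually after about 3 weeks as % versus untreated controls (100% = dead, 0% = like control).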

Series [8] concerns Triticum aestivum (TRZAS). As to the kind of experiment: D. Pre-emergence effect on useful plants, TRZAS. As to conditions: useful plant. Summed up: as §4
The test system of series [9] is Glycine max (GLXMA). As to the kind of experiment: D. Pre-emergence effect on useful plants, GLXMA. The note with it: useful plant.
From the text: as §2
(§5) Tables D1a to D5b below show the effects of selected compounds of the general formula (I) according to table 1 on various useful plants at an application rate corresponding to 320 g/ha or less, which were obtained by the experimental procedure mentioned above.

Series [10] relates to Brassica napus (BRSNW). The experiment in a line: D. Pre-emergence effect on useful plants, BRSNW. The note with it: useful plant.
From the text: as §2, §5

Series [11] has as its system Abutilon theophrasti (ABUTH). As to the kind of experiment: E. Herbicidal post-emergence efficacy, ABUTH. As to conditions: application rate 320 g/ha. Summed up: (§6)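 Greenhouse post-emergence spray, one-leaf stage (2–3 wk after sowing, sandy loam); WP/EC formulation, aqueous + 0.5% additive, 600 l/ha water; rates 320 g/ha or less. Visual rating ~3 wk later vs untreated; 0% = control-like, 100% = dead.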

Series [12] relates to Amaranthus retroflexus (AMARE). The experiment in a line: E. Herbicidal post-emergence efficacy, AMARE. The method, boiled down:
as §6

The subject of series [13] is Pharbitis purpurea (PHBPU). As to the kind of experiment: E. Herbicidal post-emergence efficacy, PHBPU. The note with it: application rate 320 g/ha. The method, boiled down:
as §6

Series [14] deals with Veronica persica (VERPE). As to the kind of experiment: E. Herbicidal post-emergence efficacy, VERPE. The method, boiled down:
as §6

Series [15] concerns Kochia scoparia (KCHSC). As to the kind of experiment: E. Herbicidal post-emergence efficacy, KCHSC. The method, boiled down: as §6
The test system of series [16] is Triticum aestivum (TRZAS). The experiment in a line: F. Post-emergence effect on useful plants, TRZAS. As to conditions: useful plant, application rate 80 g/ha. Summed up:
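Crop plants grown in sandy loam in the greenhouse were sprayed at the one-leaf stage, 2-3 weeks after sowing, with WP or EC formulations plus 0.5% additive at 600 l/ha water. Damage was scored visually after about 3 weeks against untreated controls (0% = like control, 100% = dead).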

With `O=S(=O)(CC=C(Cl)Cl)Oc1c(F)cccc1Oc1ncc(Cl)cn1` [Example I-85], the “Pre-emergence efficacy against AMARE” value in [1] (80 g/ha) and in [1] (320 g/ha) was 100% throughout. The “Pre-emergence efficacy against DIGSA” value in series [2] amounted to 100%. Besides, the “Pre-emergence efficacy against MATIN” value in series [3] worked out at 80%. Further, the “Pre-emergence efficacy against SETVI” value in series [4] is 90%. Besides, the “Pre-emergence efficacy against VIOTR in %” value in series [5] was found to be 80%. In addition, the “Pre-emergence efficacy against KCHSC in %” value in series [6] is reported as 100%. In addition, the “Pre-emergence efficacy against ZEAMX in %” value in [7] is reported as 0%. Further, the results for the “Pre-emergence efficacy against TRZAS in %” value in series [8] (application rate 80 g/ha) and in [8] (application rate 320 g/ha) were 0% and 10%, respectively. Moreover, the “Pre-emergence efficacy against GLXMA in %” value in series [9] (application rate 80 g/ha) and in [9] (application rate 320 g/ha) was 0% each time. For the same compound, the “Pre-emergence efficacy against BRSNW in %” value in series [10] (application rate 80 g/ha) and in [10] (application rate 320 g/ha) was 0% in each case. The “Post-emergence efficacy against ABUTH in %” value in series [11] came to 80%. In addition, the “Post-emergence efficacy against AMARE in %” value stood at 90% in series [12] (application rate 80 g/ha) and 100% in series [12] (application rate 320 g/ha). For the same compound, in series [13], the “Post-emergence efficacy against PHBPU in %” value is listed as 90%. The “Post-emergence efficacy against VERPE in %” value in series [14] (application rate 80 g/ha) and in series [14] (application rate 320 g/ha) was 100% in each case. The “Post-emergence efficacy against KCHSC in %” value in series [15] (application rate 80 g/ha) came to 80%; in series [15] (application rate 320 g/ha), 100%. Also, in [16], the “Post-emergence efficacy against TRZAS in %” value was 0%.

For the origin of these results see US20240174618A1, “SUBSTITUTED (2-HETEROARYLOXYPHENYL)SULFONATES, SALTS THEREOF AND THEIR USE AS HERBICIDAL AGENTS” (Bayer Aktiengesellschaft, priority 2021, published 2024).
